Holding throughout (assay): Effect on fungi growth (Example III)
Holding throughout (type): cell-based

Experiment [1] has as its system Fusarium Spp. (isolate #1). The conditions noted are these: additive 10%, without biocontrol formulation, initial diameter 0.5 cm. The text has this:
(§1) The effect of various additives on fungi growth was examined. The fungi examined included two isolates of Fusarium Spp. (isolate #1 and isolate #2), sclerotium, and trychoderma.
(§2) The larger the colony's dimension (diameter) in the petri dish, the lower is the inhibitory effect of the additive. The initial diameter of the colony before treatment was 0.5 cm.

The test system of experiment [2] is Fusarium Spp. (isolate #2). The following applies: additive 10%, without biocontrol formulation, initial diameter 0.5 cm.
From the text: as §1, §2

The subject of a further experiment is sclerotium. The following applies: additive 10%, without biocontrol formulation, initial diameter 0.5 cm.
From the text: as §1, §2

The next experiment relates to trychoderma. The conditions noted are these: additive 10%, without biocontrol formulation; initial diameter 0.5 cm.
From the text: as §1, §2

Several values for one entry are separate records, joined by “and”; a condition that tells them apart may be missing. Equal entries are not always repeated.

Turning to `O.O.O.O.O.O.O.O=S(=O)([O-])[O-].[Mg+2]` [Magnesium sulphate hepta hydrate, magnesiumsulphate hepta hydrate], the “colony size (diameter)” value in experiment [1] (hydrate) was 3.2 cm and 3.1 cm; in experiment [2] (hydrate) it was 3.0 cm and 3.1 cm; in the experiment on sclerotium (hydrate), 3.0 cm and 2.7 cm and 2.5 cm and 2.2 cm; in the experiment on trychoderma it was 0.5 cm.
On to `O=C([O-])O.[K+]` [Potassium bicarbonate, potassium becarbonate], for which the “colony size (diameter)” value in experiment [1] is 1.6 cm and 1.5 cm and 2.0 cm and 1.8 cm; in experiment [2], 1.3 cm and 1.2 cm; in the experiment on sclerotium, 0.5 cm; in the experiment on trychoderma it was 0.5 cm.
`O=C([O-])O.[Na+]` [Sodium bicarbonate, sodium bicarbonate]: the “colony size (diameter)” value in experiment [1] was 1.0 cm and 1.1 cm; in experiment [2], 0.5 cm; in the experiment on sclerotium it was 0.5 cm; in the experiment with trychoderma, 0.5 cm.

The values above are taken from patent publication US20170135322A1, “A BIOCONTROL COMBINATION AND METHOD FOR IMPROVING QUALITY OF SHELLED EGGS” (NOBACTRA ISRAEL Ltd., priority 2014, published 2017).
